Experiments:
Experiment in all cases: 33PanQinase activity assay
Format in all cases: biochemical
[1] = target: EGFR (Homo sapiens, UniProt P00533); settings: for Residual activity: EGF-R, singlicate
Excerpt: (§1) Table S4. Profiling of two compounds at two concentrations against 320 wild-type protein kinases; singlicate measurement; Residual activities (% of control).

[2] = target: T1, EPHB2 (Homo sapiens, UniProt P29323); settings: for Residual activity: singlicate
T1 sequence (P29323 19-1055): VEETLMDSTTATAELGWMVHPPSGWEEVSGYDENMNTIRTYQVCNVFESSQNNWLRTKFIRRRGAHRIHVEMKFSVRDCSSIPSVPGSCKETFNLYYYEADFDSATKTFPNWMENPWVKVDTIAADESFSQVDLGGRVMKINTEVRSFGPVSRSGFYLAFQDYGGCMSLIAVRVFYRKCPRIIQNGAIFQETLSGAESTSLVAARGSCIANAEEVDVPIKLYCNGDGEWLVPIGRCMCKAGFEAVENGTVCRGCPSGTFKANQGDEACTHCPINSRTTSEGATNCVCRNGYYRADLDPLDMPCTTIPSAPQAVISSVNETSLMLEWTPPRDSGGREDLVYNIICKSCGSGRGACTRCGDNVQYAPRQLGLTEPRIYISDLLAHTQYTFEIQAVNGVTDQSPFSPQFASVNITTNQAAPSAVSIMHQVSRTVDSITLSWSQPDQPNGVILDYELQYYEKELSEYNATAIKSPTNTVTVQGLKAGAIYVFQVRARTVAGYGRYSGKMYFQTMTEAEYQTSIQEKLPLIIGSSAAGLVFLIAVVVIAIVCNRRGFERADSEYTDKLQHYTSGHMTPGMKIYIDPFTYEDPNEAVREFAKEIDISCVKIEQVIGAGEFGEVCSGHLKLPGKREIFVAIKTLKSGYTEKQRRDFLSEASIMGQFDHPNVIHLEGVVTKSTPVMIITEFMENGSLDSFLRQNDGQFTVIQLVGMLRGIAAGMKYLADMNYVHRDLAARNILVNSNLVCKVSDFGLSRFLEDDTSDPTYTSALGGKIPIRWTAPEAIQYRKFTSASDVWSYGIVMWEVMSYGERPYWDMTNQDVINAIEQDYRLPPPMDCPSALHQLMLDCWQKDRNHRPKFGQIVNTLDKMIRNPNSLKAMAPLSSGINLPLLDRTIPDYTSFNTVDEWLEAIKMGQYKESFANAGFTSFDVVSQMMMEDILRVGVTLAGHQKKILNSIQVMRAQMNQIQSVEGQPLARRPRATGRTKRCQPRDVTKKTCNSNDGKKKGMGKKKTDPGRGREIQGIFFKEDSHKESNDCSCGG
Excerpt: as §1

[3] = target: MAP4K5 (Homo sapiens, UniProt Q9Y4K4); settings: for Residual activity: singlicate
Excerpt: as §1

[4] = target: MKNK2 (Homo sapiens, UniProt Q9HBH9); settings: for Residual activity: singlicate
Excerpt: as §1

[5] = target: T2, PRKG2 (Homo sapiens, UniProt Q13237); settings: for Residual activity, PRKG2: kinase PRKG2, singlicate
T2 sequence (Q13237 1-762): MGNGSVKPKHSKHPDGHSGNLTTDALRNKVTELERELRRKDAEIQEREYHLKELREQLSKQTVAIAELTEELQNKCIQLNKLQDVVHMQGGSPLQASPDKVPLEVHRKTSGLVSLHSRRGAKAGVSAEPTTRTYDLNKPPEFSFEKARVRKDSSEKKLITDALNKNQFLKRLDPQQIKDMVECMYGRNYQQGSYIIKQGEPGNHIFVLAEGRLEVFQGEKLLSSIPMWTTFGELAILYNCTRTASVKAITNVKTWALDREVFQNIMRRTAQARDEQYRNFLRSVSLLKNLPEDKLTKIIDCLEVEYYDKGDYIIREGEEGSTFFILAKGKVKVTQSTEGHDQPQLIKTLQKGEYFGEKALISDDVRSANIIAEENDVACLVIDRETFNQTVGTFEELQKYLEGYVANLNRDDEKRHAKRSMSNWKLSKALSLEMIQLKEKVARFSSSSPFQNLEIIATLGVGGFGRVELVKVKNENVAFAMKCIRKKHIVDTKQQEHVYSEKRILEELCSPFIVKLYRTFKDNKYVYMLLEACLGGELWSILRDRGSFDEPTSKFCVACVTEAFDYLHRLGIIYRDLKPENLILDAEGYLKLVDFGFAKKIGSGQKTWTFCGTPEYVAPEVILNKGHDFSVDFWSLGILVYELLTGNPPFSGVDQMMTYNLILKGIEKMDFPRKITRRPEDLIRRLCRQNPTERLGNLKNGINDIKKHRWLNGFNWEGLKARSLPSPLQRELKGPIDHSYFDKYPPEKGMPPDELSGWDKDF
Excerpt: as §1

[6] = target: VEGFR2 (Homo sapiens, UniProt P35968); settings: 10 μM
Excerpt: as §1

MKNK2, sequence (Q9HBH9 whole entry): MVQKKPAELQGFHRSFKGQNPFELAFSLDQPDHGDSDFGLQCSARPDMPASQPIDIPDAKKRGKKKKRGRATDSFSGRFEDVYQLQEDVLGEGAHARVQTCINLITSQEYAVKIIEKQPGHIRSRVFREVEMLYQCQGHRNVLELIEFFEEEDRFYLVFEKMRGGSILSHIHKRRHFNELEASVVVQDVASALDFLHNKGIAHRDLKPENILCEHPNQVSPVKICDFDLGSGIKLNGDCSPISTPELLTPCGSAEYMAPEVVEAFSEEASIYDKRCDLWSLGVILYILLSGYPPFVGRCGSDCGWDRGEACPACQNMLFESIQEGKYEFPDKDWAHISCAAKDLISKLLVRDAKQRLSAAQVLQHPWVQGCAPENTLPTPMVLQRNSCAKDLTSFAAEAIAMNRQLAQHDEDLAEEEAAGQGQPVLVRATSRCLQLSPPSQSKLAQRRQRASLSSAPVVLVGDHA
EGFR, sequence (P00533 25-1210): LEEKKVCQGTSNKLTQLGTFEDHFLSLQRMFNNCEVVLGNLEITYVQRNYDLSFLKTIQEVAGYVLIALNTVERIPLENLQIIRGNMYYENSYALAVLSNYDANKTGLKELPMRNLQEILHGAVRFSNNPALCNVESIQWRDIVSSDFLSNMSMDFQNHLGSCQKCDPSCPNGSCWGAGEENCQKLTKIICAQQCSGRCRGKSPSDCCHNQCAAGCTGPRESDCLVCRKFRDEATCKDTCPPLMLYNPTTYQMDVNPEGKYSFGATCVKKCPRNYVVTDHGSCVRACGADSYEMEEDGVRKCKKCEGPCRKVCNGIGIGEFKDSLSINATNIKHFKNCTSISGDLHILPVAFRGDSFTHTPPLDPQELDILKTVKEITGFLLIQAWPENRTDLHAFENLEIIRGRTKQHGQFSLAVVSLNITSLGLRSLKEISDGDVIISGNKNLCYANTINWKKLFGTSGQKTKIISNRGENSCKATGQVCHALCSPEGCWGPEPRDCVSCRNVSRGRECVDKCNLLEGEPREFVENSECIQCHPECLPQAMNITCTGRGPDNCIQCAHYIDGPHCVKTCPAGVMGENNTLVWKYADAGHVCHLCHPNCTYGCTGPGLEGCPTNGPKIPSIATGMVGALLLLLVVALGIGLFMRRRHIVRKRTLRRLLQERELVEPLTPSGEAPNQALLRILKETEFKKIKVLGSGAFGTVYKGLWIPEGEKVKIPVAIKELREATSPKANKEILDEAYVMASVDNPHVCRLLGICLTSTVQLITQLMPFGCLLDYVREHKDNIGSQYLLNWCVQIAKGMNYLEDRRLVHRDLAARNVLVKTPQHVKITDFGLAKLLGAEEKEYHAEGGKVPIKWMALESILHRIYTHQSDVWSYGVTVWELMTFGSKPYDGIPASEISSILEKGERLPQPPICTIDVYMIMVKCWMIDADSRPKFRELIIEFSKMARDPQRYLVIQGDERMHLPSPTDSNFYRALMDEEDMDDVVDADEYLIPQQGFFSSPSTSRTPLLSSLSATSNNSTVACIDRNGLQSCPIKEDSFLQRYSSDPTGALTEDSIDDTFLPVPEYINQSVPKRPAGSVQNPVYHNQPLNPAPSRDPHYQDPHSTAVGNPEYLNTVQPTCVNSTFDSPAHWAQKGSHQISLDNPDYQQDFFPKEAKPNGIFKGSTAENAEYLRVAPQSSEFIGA
MAP4K5, sequence (Q9Y4K4 whole entry): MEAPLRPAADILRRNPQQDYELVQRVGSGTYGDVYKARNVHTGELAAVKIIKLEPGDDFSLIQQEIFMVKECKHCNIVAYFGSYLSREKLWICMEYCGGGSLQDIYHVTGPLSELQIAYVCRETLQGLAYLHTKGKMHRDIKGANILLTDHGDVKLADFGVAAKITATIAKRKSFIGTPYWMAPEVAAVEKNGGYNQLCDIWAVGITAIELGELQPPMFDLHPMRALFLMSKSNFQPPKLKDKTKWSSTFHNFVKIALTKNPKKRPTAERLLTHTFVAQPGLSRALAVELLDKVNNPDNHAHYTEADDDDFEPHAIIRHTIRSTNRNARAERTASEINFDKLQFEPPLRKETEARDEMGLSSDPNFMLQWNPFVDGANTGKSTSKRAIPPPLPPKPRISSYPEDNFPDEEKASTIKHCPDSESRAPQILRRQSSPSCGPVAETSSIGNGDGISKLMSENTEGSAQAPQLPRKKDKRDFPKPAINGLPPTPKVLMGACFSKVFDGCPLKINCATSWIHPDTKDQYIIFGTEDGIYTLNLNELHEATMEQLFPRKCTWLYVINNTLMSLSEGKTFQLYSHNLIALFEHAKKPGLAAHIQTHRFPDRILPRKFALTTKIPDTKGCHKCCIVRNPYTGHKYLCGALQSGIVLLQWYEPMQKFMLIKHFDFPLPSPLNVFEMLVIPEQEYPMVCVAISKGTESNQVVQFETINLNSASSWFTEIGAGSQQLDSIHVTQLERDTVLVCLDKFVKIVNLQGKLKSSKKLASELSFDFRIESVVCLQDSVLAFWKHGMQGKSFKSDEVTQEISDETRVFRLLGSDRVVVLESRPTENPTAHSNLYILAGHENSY
VEGFR2, sequence (P35968 20-1356): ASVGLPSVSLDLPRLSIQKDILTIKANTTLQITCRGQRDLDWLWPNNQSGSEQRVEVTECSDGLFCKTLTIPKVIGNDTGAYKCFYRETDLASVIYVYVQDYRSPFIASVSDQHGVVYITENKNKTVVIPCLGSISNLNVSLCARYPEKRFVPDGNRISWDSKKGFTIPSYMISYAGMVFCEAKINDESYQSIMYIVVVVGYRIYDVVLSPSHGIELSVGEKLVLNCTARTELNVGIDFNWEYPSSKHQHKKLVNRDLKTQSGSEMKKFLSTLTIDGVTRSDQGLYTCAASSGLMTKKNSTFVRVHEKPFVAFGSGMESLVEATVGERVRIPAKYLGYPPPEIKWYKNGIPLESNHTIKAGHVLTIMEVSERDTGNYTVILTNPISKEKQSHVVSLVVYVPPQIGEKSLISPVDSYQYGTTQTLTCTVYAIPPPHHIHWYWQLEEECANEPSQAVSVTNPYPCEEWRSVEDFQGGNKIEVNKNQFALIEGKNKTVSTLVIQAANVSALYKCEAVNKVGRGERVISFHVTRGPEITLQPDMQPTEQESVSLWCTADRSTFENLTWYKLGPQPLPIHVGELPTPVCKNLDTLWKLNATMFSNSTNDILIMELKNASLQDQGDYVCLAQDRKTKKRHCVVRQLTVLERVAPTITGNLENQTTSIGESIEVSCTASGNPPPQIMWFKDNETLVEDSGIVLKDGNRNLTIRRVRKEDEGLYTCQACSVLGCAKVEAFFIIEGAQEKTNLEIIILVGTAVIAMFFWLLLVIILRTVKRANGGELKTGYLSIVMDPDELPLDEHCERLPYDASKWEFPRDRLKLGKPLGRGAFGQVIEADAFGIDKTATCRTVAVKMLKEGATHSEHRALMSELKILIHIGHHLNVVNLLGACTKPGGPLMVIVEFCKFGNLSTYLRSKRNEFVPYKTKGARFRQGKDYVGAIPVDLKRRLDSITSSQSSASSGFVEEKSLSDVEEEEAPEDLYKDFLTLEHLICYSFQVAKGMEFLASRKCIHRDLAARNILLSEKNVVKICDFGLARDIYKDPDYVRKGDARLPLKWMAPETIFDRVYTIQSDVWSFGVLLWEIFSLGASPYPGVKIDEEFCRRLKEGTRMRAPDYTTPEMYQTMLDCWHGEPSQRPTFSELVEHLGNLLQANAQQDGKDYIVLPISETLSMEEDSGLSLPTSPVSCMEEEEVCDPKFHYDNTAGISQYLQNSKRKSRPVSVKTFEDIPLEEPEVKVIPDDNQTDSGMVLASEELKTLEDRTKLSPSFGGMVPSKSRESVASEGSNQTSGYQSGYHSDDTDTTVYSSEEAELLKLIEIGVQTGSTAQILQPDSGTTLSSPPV

Structure (SMILES): C#Cc1cc(Nc2ncnc3cc(I)ccc23)ccc1Cl [Compound 41]
- EGFR inhibition ([1]; 1 μM): > 50%
- EGFR inhibition ([1]; 10 μM): > 50%
- Residual activity ([1]; 1.0E-06 M): 8 % of control
- Residual activity ([1]; 1.0E-07 M): 28 % of control
- Residual activity ([2]; EPHB2, 1.0E-06 M): 58 % of control
- Residual activity ([2]; EPHB2, 1.0E-07 M): 79 % of control
- Residual activity ([3]; MAP4K5, 1.0E-06 M): 70 % of control
- Residual activity ([3]; MAP4K5, 1.0E-07 M): 101 % of control
- Residual activity ([4]; MKNK2, 1.0E-06 M): 74 % of control
- Residual activity ([4]; MKNK2, 1.0E-07 M): 92 % of control
- PRKG2 inhibition ([5]; 10 μM): > 50%
- Residual activity, PRKG2 ([5]; assay conc. 1.0E-06 M): 20 % of control
- Residual activity, PRKG2 ([5]; assay conc. 1.0E-07 M): 100 % of control

Structure (SMILES): C#Cc1cc(Nc2ncnc3cc(OC)c(OC)cc23)ccc1Cl [Compound 45]
- EGFR inhibition ([1]; 1 μM): > 50%
- EGFR inhibition ([1]; 10 μM): > 50%
- Residual activity ([1]; 1.0E-06 M): 0 % of control
- Residual activity ([1]; 1.0E-07 M): 2 % of control
- EPHB2 inhibition ([2]; 10 μM): > 50%
- Residual activity ([2]; EPHB2, 1.0E-06 M): 11 % of control
- Residual activity ([2]; EPHB2, 1.0E-07 M): 50 % of control
- MAP4K5 inhibition ([3]; 10 μM): > 50%
- Residual activity ([3]; MAP4K5, 1.0E-06 M): 22 % of control
- Residual activity ([3]; MAP4K5, 1.0E-07 M): 108 % of control
- MKNK2 inhibition ([4]; 10 μM): > 50%
- Residual activity ([4]; MKNK2, 1.0E-06 M): 46 % of control
- Residual activity ([4]; MKNK2, 1.0E-07 M): 78 % of control
- Residual activity, PRKG2 ([5]; assay conc. 1.0E-06 M): 80 % of control
- Residual activity, PRKG2 ([5]; assay conc. 1.0E-07 M): 118 % of control
- VEGFR2 inhibition [6]: > 50%
